{"source": "patent US6069146A", "about": "“Halimide, a cytotoxic marine natural product, and derivatives thereof” (The Regents of the University of California, priority 1998, dated 2000)", "key": {"[1]": {"test_system": "P388 mouse leukemia cells", "experiment": "In vivo P388 murine leukemia model, survival", "method": "The efficacy of halimide was determined in vivo in a mouse P388 model. 1×10^6 P388 mouse leukemia cells were implanted in the intraperitoneal cavity of BALB/cX DBA/2 F1 (CDF1) or C57/BL6XDBA/2 F1 (BDF1) mice (Rose et al., Cancer Res. 43:1504-1510 (1983), which is incorporated herein by reference). Halimide was dissolved in ethanol and diluted with water to a concentration of 2.7 mg/ml. Halimide was injected intraperitoneally or intravenously beginning on the first day after tumor implantation and every day thereafter for five treatments. Increases in life span were reflected by the median survival time of treated (T) versus control (C) groups; T/C was calculated. For the P388 tumor model, a T/C […] 125% is considered to be a significant increase in survival. An optimal dose of 27 mg/kg/injection, ip, produced a T/C of 153%."}, "[2]": {"test_system": "carcinoma cells", "experiment": "Cell cycle arrest of carcinoma cells", "type": "cell-based", "details": "5 μM halimide", "excerpt": "As used herein, the term \"premitotic stage,\" when used in reference to cells, means that the cells have not attained the anaphase stage of mitosis and, therefore, have not yet begun to divide. […] Thus, the invention provides a method of reducing or inhibiting the ability of the cells to proceed through mitosis and, therefore, proliferate, by contacting the cells with a compound of the invention."}, "[3]": {"test_system": "paclitaxel-resistant A2780 cell line with altered tubulin", "experiment": "Collateral sensitivity, paclitaxel-resistant A2780", "type": "cell-based, human"}, "[4]": {"test_system": "dividing cells (mitotic spindle)", "experiment": "Mitotic spindle / cell division in dividing cells", "type": "cell-based", "details": "exposure of dividing cells", "excerpt": "(§1) Since cancer cells generally divide more rapidly than their normal cell counterpart, cancer cells generally are more susceptible than the normal cells to mitotic inhibitors such as halimide."}, "[5]": {"test_system": "human ovarian carcinoma cell line A2780", "experiment": "MTS cytotoxicity assay, A2780", "type": "cell-based", "details": "read-out: IC50, inhibition of cell proliferation", "method": "(§2) The cytotoxicity of halimide was assessed in vitro against the human colon carcinoma cell line HCT116 and the human ovarian carcinoma cell line A2780 by MTS assay (Ribs et al., Mol. Biol. Cell 3:184a (1992), which is incorporated herein by reference). Cells were plated at 4,000 cells/well in 96 well microliter plates and, after 24 hours, halimide (dissolved in DMSO) was added and serially diluted. The cells were incubated with the compound at 37° C. for 72 hours, then the tetrazolium dye MTS was added to a final concentration of 333 μg/ml and the electron coupling agent phenazine methosulfate was added to a final concentration of 25 μM. A dehydrogenase enzyme in live cells reduces the MTS to a form that absorbs light at […], which can be quantitated spectrophotometrically.\n(§3) Assay results are expressed as an IC50, which is the drug concentration required to inhibit cell proliferation by 50% compared to growth of untreated control cells."}, "[6]": {"test_system": "multi-drug resistant human colon carcinoma cells", "experiment": "Cross-resistance, multi-drug resistant colon carcinoma cells", "type": "cell-based"}, "[7]": {"test_system": "tubulin", "experiment": "Binding to tubulin", "details": "each molecule of halimide to one tubulin molecule", "excerpt": "as §1"}, "[8]": {"test_system": "human colon carcinoma cell line HCT116", "experiment": "MTS cytotoxicity assay, HCT116", "type": "cell-based", "details": "HCT-116, HCT116, 72 hours, read-out: IC50, inhibition of cell proliferation", "method": "as §2, §3"}, "[9]": {"test_system": "2X cycled bovine brain tubulin", "experiment": "Inhibition of tubulin polymerization (2X cycled bovine brain tubulin, GTP)", "type": "biochemical", "excerpt": "Thus, the compounds of the invention have an activity similar to vinca alkaloids, but are chemically distinct from the vinca alkaloids."}, "[10]": {"test_system": "Bcl-2", "experiment": "Bcl-2 phosphorylation", "type": "cell-based"}}, "note": "pIC50: −log10 of the molar value. Where two headings read alike, the source gives them in different places."}
{"smiles": "C=CC(C)(C)c1nc[nH]c1/C=C1\\NC(=O)C(Cc2ccccc2)NC1=O", "note": "(stereo not shown) [halimide]", "values": [{"measurement": "survival of leukemia bearing mice (in words)", "setting": "[1]; P388 model", "result": "significantly prolongs the survival of leukemia bearing mice"}, {"measurement": "increase in life span", "setting": "[1]; intraperitoneal injected P388 murine leukemia model", "result": 53, "unit": "%"}, {"measurement": "optimal dose", "setting": "[1]; ip, P388 model", "result": 27, "unit": "mg/kg/injection"}, {"measurement": "T/C (median survival time of treated versus control)", "setting": "[1]; optimal dose 27 mg/kg/injection, ip, daily for five treatments from first day after implantation", "result": 153, "unit": "%"}, {"measurement": "cell cycle arrest (in words)", "setting": "[2]", "result": "arrested the cells at or near the G2/M boundary of the cell cycle"}, {"measurement": "collateral sensitivity (in words)", "setting": "[3]", "result": "collaterally sensitive"}, {"measurement": "block of the cell in a premitotic stage (in words)", "setting": "[4]", "result": "blocked the cell in a premitotic stage within a few minutes; the cells did not divide"}, {"measurement": "effect on mitotic spindle (in words)", "setting": "[4]", "result": "disappearance of the mitotic spindle"}, {"measurement": "pIC50", "setting": "[5]; A2780, 72 hours", "result": 6.09}, {"measurement": "pIC50", "setting": "[5]; Homo sapiens, A2780, 72 h", "result": 6.10}, {"measurement": "resistance of multi-drug resistant cells (in words)", "setting": "[6]", "result": "not resistant"}, {"measurement": "binding to tubulin (in words)", "setting": "[7]", "result": "bound tightly to one tubulin molecule"}, {"measurement": "pIC50", "setting": "[8]", "result": 6.00}, {"measurement": "inhibition of tubulin polymerization (in words)", "setting": "[9]", "result": "inhibited tubulin polymerization"}, {"measurement": "inhibition of tubulin polymerization", "setting": "[9]; 20 μM halimide, in the presence of GTP", "result": 55, "unit": "%"}, {"measurement": "Bcl-2 hyperphosphorylation (in words)", "setting": "[10]", "result": "can hyperphosphorylate Bcl-2"}]}
